Results taken from publication PMC3091354 (Journal of chromatography. B, Analytical technologies in …, 2011).
Where “and” joins values, the source holds several entries; their conditions need not be identical. Equal entries are not always repeated. Where two headings read alike, the source gives them in different places.

Assays:
[1] = assay type: in vivo; details: mouse; for concentration at 1 week: male, C57BL/6N, oral; for Concentration in brain: 1 week
[2] = assay type: in vivo; details: mouse; for Tmax / MRT inf: male, C57BL/6N, ip
[3] = system: cells; details: all cells tested; cited from earlier work
[4] = Stability of 3-MoSA in mouse brain homogenate to freezing; assay type: physicochemical; details: storage 7 months at −80°C
[5] = single i.p. 200 mg/kg, plasma, 200 mg/kg

For `COc1cccc(CN)c1O` [3-MoSA, 3-methoxy-2-hydroxybenzylamine], the concentration at 1 week ([1]; brain, 3 g/l, Concentration in brain, drink at 3 g/l) was 18000 ng/g, the concentration at 1 week ([1]; brain, 5 g/l, Concentration in brain, drink at 5 g/l) was 25000 ng/g and the concentration at 1 week ([1]; brain, 7 g/l, Concentration in brain, drink at 7 g/l) was 38000 ng/g. The concentration at 1 week ([1]; brain, 10 g/l, Concentration in brain, drink at 10 g/l) was 82000 ng/g, the concentration at 1 week ([1]; heart, 3 g/l, Concentration in heart, drink at 3 g/l) was 23900 ± 6500 ng/g and the concentration at 1 week ([1]; heart, 5 g/l, Concentration in heart, drink at 5 g/l) was 46300 ± 6000 ng/g. The concentration at 1 week ([1]; heart, 7 g/l, Concentration in heart, drink at 7 g/l) was 53500 ± 8100 ng/g, the concentration at 1 week ([1]; heart, 10 g/l, Concentration in heart, drink at 10 g/l) was 60200 ± 8700 ng/g and the concentration at 1 week ([1]; kidney, 3 g/l, Concentration in kidney, drink at 3 g/l) was 91100 ± 16300 ng/g. The concentration at 1 week ([1]; kidney, 5 g/l, Concentration in kidney, drink at 5 g/l) was 155000 ± 20300 ng/g, the concentration at 1 week ([1]; kidney, 7 g/l, Concentration in kidney, drink at 7 g/l) was 210000 ± 13100 ng/g and the concentration at 1 week ([1]; kidney, 10 g/l, Concentration in kidney, drink at 10 g/l) was 212000 ± 17400 ng/g. It also gave a concentration at 1 week ([1]; liver, 3 g/l, Concentration in liver, drink at 3 g/l) of 74100 ± 11700 ng/g, a concentration at 1 week ([1]; liver, 5 g/l, Concentration in liver, drink at 5 g/l) of 204000 ± 22000 ng/g and a concentration at 1 week ([1]; liver, 7 g/l, Concentration in liver, drink at 7 g/l) of 252000 ± 24300 ng/g. It also gave a concentration at 1 week ([1]; liver, 10 g/l, Concentration in liver, drink at 10 g/l) of 259000 ± 26200 ng/g, a concentration at 1 week ([1]; plasma, 3 g/l, Concentration in plasma, drink at 3 g/l) of 4000 ± 1000 ng/mL and a concentration at 1 week ([1]; plasma, 5 g/l, Concentration in plasma, drink at 5 g/l) of 5400 ± 1100 ng/mL. The concentration at 1 week ([1]; plasma, 7 g/l, Concentration in plasma, drink at 7 g/l) was 10800 ± 1600 ng/mL, the concentration at 1 week ([1]; plasma, 10 g/l, Concentration in plasma, drink at 10 g/l) was 11500 ± 1200 ng/mL and the concentration at 1 week ([1]; spleen, 3 g/l, Concentration in spleen, drink at 3 g/l) was 46600 ± 7900 ng/g. The concentration at 1 week ([1]; spleen, 5 g/l, Concentration in spleen, drink at 5 g/l) was 82200 ± 7200 ng/g, the concentration at 1 week ([1]; spleen, 7 g/l, Concentration in spleen, drink at 7 g/l) was 185000 ± 11600 ng/g and the concentration at 1 week ([1]; spleen, 10 g/l, Concentration in spleen, drink at 10 g/l) was 192000 ± 23600 ng/g. For the same compound, the Concentration in brain ([1]; drink at 3 g/l) was 18.1 ± 4.4 µg of 3-MoSA/g of tissue, the Concentration in brain ([1]; drink at 5 g/l) was 24.7 ± 3.1 µg of 3-MoSA/g of tissue and the Concentration in brain ([1]; drink at 7 g/l) was 37.6 ± 0.8 µg of 3-MoSA/g of tissue. For the same compound, the Concentration in brain ([1]; drink at 10 g/l) was 82.3 ± 24.5 µg of 3-MoSA/g of tissue, the Tmax ([2]; brain, 200 mg/kg) was 15 min and the MRT inf ([2]; heart, 200 mg/kg) was 54 min. It also gave a Tmax ([2]; heart, 200 mg/kg) of 15 min, an MRT inf ([2]; kidney, 200 mg/kg) of 54 min and a Tmax ([2]; kidney, 200 mg/kg) of 30 min. The MRT inf ([2]; liver, 200 mg/kg) was 60 min, the Tmax ([2]; liver, 200 mg/kg) was 15 min and the Tmax ([2]; plasma, 200 mg/kg) was 30 min. The MRT inf ([2]; spleen, 200 mg/kg) was 60 min, the Tmax ([2]; spleen, 200 mg/kg) was 15 min and the “Time to distribution to heart, spleen, liver and kidneys after administration” value ([2]; single i.p. 200 mg/kg) was 15 to 30 min. The “Time of maximum brain concentration (CBmax)” value ([2]; single i.p. 200 mg/kg, brain) was 15 min, the “Cmax, brain” value ([2]; single i.p. 200 mg/kg, brain, 200 mg/kg) was 1395 ± 207 µg/g and 1395.3 ± 207.0 µg/g and the “AUC (0-t), heart” value ([2]; single i.p. 200 mg/kg, heart) was 546.7 ± 52.4 µg·h/g. For the same compound, the “AUC (0-t), kidney” value ([2]; single i.p. 200 mg/kg, kidney) was 1981.6 ± 174.0 µg·h/g, the “Cmax, kidney” value ([2]; single i.p. 200 mg/kg, kidney) was 1703.1 ± 146.1 µg/g and the “AUC (0-t), liver” value ([2]; single i.p. 200 mg/kg, liver) was 540.4 ± 37.1 µg·h/g. For the same compound, the “Cmax, liver” value ([2]; single i.p. 200 mg/kg, liver) was 880.4 ± 122.3 µg/g, the “Drug accumulation over time in organs” value ([2]; single i.p. 200 mg/kg, organs studied) was “no evidence of specific drug accumulation over time” and the “AUC (0-t), plasma” value [2, 5] was 361.5 ± 41.6 µg·h/mL. The “CL/F (total body clearance)” value [2, 5] was 544.1 L/h/kg, the “Cmax, plasma” value [2, 5] was 342600 ± 56400 ng/mL and the “Elimination t1/2, plasma” value [2, 5] was 36 min. The “V/F (apparent volume of distribution, Vd/F)” value [2, 5] was 486.4 L/kg, the “AUC (0-t), spleen” value ([2]; single i.p. 200 mg/kg, spleen) was 734.5 ± 60.7 µg·h/g and the “Time after injection up to which 3-MoSA was detectable in tissue” value ([2]; single i.p. 200 mg/kg, tissue) was “up to 4 h”. For the same compound, the Cytotoxicity [3] was “not cytotoxic” and the “Stability: fraction recovered after storage” value [4] was 77% and 76.87%.
